Assays:
Type in all cases: in vivo
[1] = system: ragweed (common ragweed, Ambrosia elatior); test: Test A preemergence, visual injury rating; conditions: 0 to 100 scale (0 no effect, 100 complete control)
In short: (§1)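 Scoring: eye-based comparison with untreated controls, 0 for no effect through 100 for complete control, at about day 10. Treatments: directed soil spray preemergence; foliar spray postemergence on 2–10 cm plants at the one- to two-leaf stage. Medium: loam soil with sand.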

[2] = system: giant foxtail (Setaria faberii); test: Test A preemergence, visual injury rating; conditions: 0 to 100 scale (0 no effect, 100 complete control)
In short: as §1

[3] = system: Italian ryegrass (Lolium multiflorum); test: Test A preemergence, visual injury rating; conditions: 0 to 100 scale (0 no effect, 100 complete control)
In short: as §1

[4] = system: barnyardgrass (Echinochloa crus-galli); test: Test A preemergence, visual injury rating; conditions: 0 to 100 scale (0 no effect, 100 complete control)
In short: as §1

soybean (Glycine max) = test: Test C preemergence, plant response rating; conditions: Preemergence
In short: (§2)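 After sowing in loam–sand blend or silt loam, pots were sprayed preemergence; separately grown 1- to 4-leaf plants were sprayed postemergence. Following 13 to 15 d under greenhouse conditions, injury was rated visually on a 0 to 100 scale.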

[5] = system: waterhemp (common waterhemp, Amaranthus rudis); test: Test C preemergence, plant response rating; conditions: Preemergence
In short: as §2

[6] = system: ragweed (common ragweed, Ambrosia elatior); test: Test C preemergence, plant response rating; conditions: Preemergence
In short: as §2

[7] = system: wheat (winter wheat, Triticum aestivum); test: Test C preemergence, plant response rating; conditions: Preemergence
In short: as §2

[8] = system: lambsquarters (Chenopodium album); test: Test C preemergence, plant response rating; conditions: Preemergence
In short: as §2

[9] = system: crabgrass, large (large crabgrass, Digitaria sanguinalis); test: Test C preemergence, plant response rating; conditions: Preemergence
In short: as §2

[10] = system: foxtail, giant (giant foxtail, Setaria faberii); test: Test C preemergence, plant response rating; conditions: Preemergence
In short: as §2

[11] = system: ryegrass, Italian (Italian ryegrass, Lolium multiflorum); test: Test C preemergence, plant response rating; conditions: Preemergence
In short: as §2

[12] = system: blackgrass (Alopecurus myosuroides); test: Test C preemergence, plant response rating; conditions: Preemergence
In short: as §2

[13] = system: velvetleaf (Abutilon theophrasti); test: Test C preemergence, plant response rating; conditions: Preemergence
In short: as §2

[14] = system: nutsedge, yellow (yellow nutsedge, Cyperus esculentus); test: Test C preemergence, plant response rating; conditions: Preemergence
In short: as §2

[15] = system: oilseed rape (Brassica napus); test: Test C preemergence, plant response rating; conditions: Preemergence
In short: as §2

corn (Zea mays) = test: Test C preemergence, plant response rating; conditions: Preemergence
In short: as §2

[16] = system: morningglory (Ipomoea coccinea); test: Test C preemergence, plant response rating; conditions: Preemergence
In short: as §2

Q: How did the “Ragweed plant response rating” value ([1]; 125 g ai/ha) turn out when `CCCC(=O)c1c(Br)cccc1Oc1ncc(Cl)cn1` [Compound 75] was run?
A: The value was 0.

Q: What about the “Ragweed plant response rating” value ([1]; 500 g ai/ha) of the same compound?
A: The value was 10.

Q: And the “Foxtail, Giant plant response rating” value ([2]; 125 g ai/ha)?
A: The value was 100.

Q: What about the “Foxtail, Giant plant response rating” value ([2]; 500 g ai/ha) of the same compound?
A: The value was 100.

Q: And the “Ryegrass, Italian plant response rating” value ([3]; 125 g ai/ha)?
A: The value was 80.

Q: What about the “Ryegrass, Italian plant response rating” value ([3]; 500 g ai/ha) of the same compound?
A: The value was 100.

Q: What about the “Barnyardgrass plant response rating” value ([4]; 125 g ai/ha) of the same compound?
A: Its value is 100.

Q: And the “Barnyardgrass plant response rating” value ([4]; 500 g ai/ha)?
A: Its value is 100.

Q: And the “Plant response rating, Soybean” value (soybean (Glycine max); 125 g ai/ha, scale of 0 to 100)?
A: Its value is 50.

Q: And the “Plant response rating, Soybean” value (soybean (Glycine max); 16 g ai/ha, scale 0 to 100)?
A: The value was 0.

Q: And the “Plant response rating, Soybean” value (soybean (Glycine max); 31 g ai/ha, scale 0 to 100)?
A: The value was 0.

Q: What about the “Plant response rating, Soybean” value (soybean (Glycine max); 62 g ai/ha, scale 0 to 100) of the same compound?
A: The value was 10.

Q: And the “Plant response rating, Waterhemp” value ([5]; 125 g ai/ha, scale of 0 to 100)?
A: The value was 98.

Q: What about the “Plant response rating, Waterhemp” value ([5]; 16 g ai/ha, scale 0 to 100) of the same compound?
A: Its value is 75.

Q: What about the “Plant response rating, Waterhemp” value ([5]; 31 g ai/ha, scale 0 to 100) of the same compound?
A: The value was 95.

Q: And the “Plant response rating, Waterhemp” value ([5]; 62 g ai/ha, scale 0 to 100)?
A: The value was 98.

Q: What about the “Plant response rating, Ragweed” value ([6]; 125 g ai/ha, scale of 0 to 100) of the same compound?
A: The value was 5.

Q: What about the “Plant response rating, Ragweed” value ([6]; 16 g ai/ha, scale 0 to 100) of the same compound?
A: Its value is 0.

Q: What about the “Plant response rating, Ragweed” value ([6]; 31 g ai/ha, scale 0 to 100) of the same compound?
A: Its value is 0.

Q: What about the “Plant response rating, Ragweed” value ([6]; 62 g ai/ha, scale 0 to 100) of the same compound?
A: Its value is 0.

Q: And the “Plant response rating, Wheat” value ([7]; 125 g ai/ha, scale of 0 to 100)?
A: Its value is 10.

Q: What about the “Plant response rating, Wheat” value ([7]; 16 g ai/ha, scale 0 to 100) of the same compound?
A: Its value is 0.

Q: And the “Plant response rating, Wheat” value ([7]; 31 g ai/ha, scale 0 to 100)?
A: The value was 0.

Q: And the “Plant response rating, Wheat” value ([7]; 62 g ai/ha, scale 0 to 100)?
A: The value was 10.

Q: What about the “Plant response rating, Lambsquarters” value ([8]; 125 g ai/ha, scale of 0 to 100) of the same compound?
A: Its value is 70.

Q: What about the “Plant response rating, Lambsquarters” value ([8]; 16 g ai/ha, scale 0 to 100) of the same compound?
A: The value was 0.

Q: And the “Plant response rating, Lambsquarters” value ([8]; 31 g ai/ha, scale 0 to 100)?
A: The value was 10.

Q: And the “Plant response rating, Lambsquarters” value ([8]; 62 g ai/ha, scale 0 to 100)?
A: The value was 35.

Q: What about the “Plant response rating, Crabgrass, Large” value ([9]; 62 g ai/ha, scale of 0 to 100) of the same compound?
A: The value was 98.

Q: And the “Plant response rating, Crabgrass, Large” value ([9]; 125 g ai/ha, scale of 0 to 100)?
A: Its value is 98.

Q: What about the “Plant response rating, Crabgrass, Large” value ([9]; 16 g ai/ha, scale 0 to 100) of the same compound?
A: The value was 65.

Q: And the “Plant response rating, Crabgrass, Large” value ([9]; 31 g ai/ha, scale 0 to 100)?
A: Its value is 85.

Q: And the “Plant response rating, Foxtail, Giant” value ([10]; 62 g ai/ha, scale of 0 to 100)?
A: Its value is 65.

Q: And the “Plant response rating, Foxtail, Giant” value ([10]; 125 g ai/ha, scale of 0 to 100)?
A: Its value is 98.

Q: What about the “Plant response rating, Foxtail, Giant” value ([10]; 16 g ai/ha, scale 0 to 100) of the same compound?
A: The value was 0.

Q: What about the “Plant response rating, Foxtail, Giant” value ([10]; 31 g ai/ha, scale 0 to 100) of the same compound?
A: Its value is 25.

Q: And the “Plant response rating, Ryegrass, Italian” value ([11]; 125 g ai/ha, scale of 0 to 100)?
A: The value was 15.

Q: And the “Plant response rating, Ryegrass, Italian” value ([11]; 16 g ai/ha, scale 0 to 100)?
A: The value was 0.

Q: What about the “Plant response rating, Ryegrass, Italian” value ([11]; 31 g ai/ha, scale 0 to 100) of the same compound?
A: Its value is 5.

Q: And the “Plant response rating, Ryegrass, Italian” value ([11]; 62 g ai/ha, scale 0 to 100)?
A: The value was 5.

Q: And the “Plant response rating, Blackgrass” value ([12]; 62 g ai/ha, scale of 0 to 100)?
A: Its value is 80.

Q: What about the “Plant response rating, Blackgrass” value ([12]; 125 g ai/ha, scale of 0 to 100) of the same compound?
A: The value was 75.

Q: What about the “Plant response rating, Blackgrass” value ([12]; 16 g ai/ha, scale 0 to 100) of the same compound?
A: Its value is 0.

Q: And the “Plant response rating, Blackgrass” value ([12]; 31 g ai/ha, scale 0 to 100)?
A: Its value is 5.

Q: And the “Plant response rating, Velvetleaf” value ([13]; 125 g ai/ha, scale of 0 to 100)?
A: The value was 25.

Q: And the “Plant response rating, Velvetleaf” value ([13]; 16 g ai/ha, scale 0 to 100)?
A: Its value is 0.

Q: And the “Plant response rating, Velvetleaf” value ([13]; 31 g ai/ha, scale 0 to 100)?
A: The value was 5.

Q: And the “Plant response rating, Velvetleaf” value ([13]; 62 g ai/ha, scale 0 to 100)?
A: Its value is 35.

Q: And the “Plant response rating, Nutsedge, Yellow” value ([14]; 125 g ai/ha, scale of 0 to 100)?
A: The value was 20.

Q: What about the “Plant response rating, Nutsedge, Yellow” value ([14]; 16 g ai/ha, scale 0 to 100) of the same compound?
A: Its value is 0.

Q: What about the “Plant response rating, Nutsedge, Yellow” value ([14]; 31 g ai/ha, scale 0 to 100) of the same compound?
A: Its value is 0.

Q: And the “Plant response rating, Nutsedge, Yellow” value ([14]; 62 g ai/ha, scale 0 to 100)?
A: The value was 0.

Q: What about the “Plant response rating, Oilseed Rape” value ([15]; 125 g ai/ha, scale of 0 to 100) of the same compound?
A: The value was 40.

Q: And the “Plant response rating, Oilseed Rape” value ([15]; 16 g ai/ha, scale 0 to 100)?
A: Its value is 0.

Q: What about the “Plant response rating, Oilseed Rape” value ([15]; 31 g ai/ha, scale 0 to 100) of the same compound?
A: Its value is 0.

Q: What about the “Plant response rating, Oilseed Rape” value ([15]; 62 g ai/ha, scale 0 to 100) of the same compound?
A: The value was 10.

Q: And the “Plant response rating, Corn” value (corn (Zea mays); 62 g ai/ha, scale of 0 to 100)?
A: The value was 0.

Q: And the “Plant response rating, Corn” value (corn (Zea mays); 125 g ai/ha, scale of 0 to 100)?
A: Its value is 5.

Q: What about the “Plant response rating, Corn” value (corn (Zea mays); 16 g ai/ha, scale 0 to 100) of the same compound?
A: The value was 0.

Q: What about the “Plant response rating, Corn” value (corn (Zea mays); 31 g ai/ha, scale 0 to 100) of the same compound?
A: Its value is 0.

Q: And the “Plant response rating, Morningglory” value ([16]; 125 g ai/ha, scale of 0 to 100)?
A: The value was 10.

Q: What about the “Plant response rating, Morningglory” value ([16]; 16 g ai/ha, scale 0 to 100) of the same compound?
A: The value was 0.

Q: And the “Plant response rating, Morningglory” value ([16]; 31 g ai/ha, scale 0 to 100)?
A: Its value is 0.

Q: What about the “Plant response rating, Morningglory” value ([16]; 62 g ai/ha, scale 0 to 100) of the same compound?
A: Its value is 20.

Reference: patent publication US11053204B2, “Pyrimidinyloxy benzene derivatives as herbicides” (FMC Corporation, priority 2015, dated 2021)
